Reference: patent publication US20120177698A1, “AGGREGATES WITH INCREASED DEFORMABILITY, COMPRISING AT LEAST THREE AMPHIPATS, FOR IMPROVED TRANSPORT THROUGH SEMI-PERMEABLE BARRIERS AND FOR THE NON-INVASIVE DRUG APPLICATION IN VIVO, ESPECIALLY THROUGH THE SKIN” (priority 2002, published 2012)

Assay: Barrier transport resistance, simple experimental method (SEM), filtration through 0.2 micrometer filter
Assay type: physicochemical
Conditions: Examples 121-129; relative SDS concentration in SPC/Tween 80 bilayer; some uncertainty in the 2-6 mol % region
Description: In first approximation one relies on simple experimental method (SEM) and takes barrier transport resistance (in arbitrary units) to be proportional to the pressure (in arbitrary units) needed to drive a suspension of relatively large vesicles through a 0.2 micrometer filter with good efficacy. […] Barrier penetrability, which in older publications is called permeability, is identified with inverse barrier resistance value. […] Drug Delivery Rev. 18:349-378 (1996).
Transport (pore penetration) capability. […] The trend is enhanced by the presence of sodium dodecylsulphate in the mixed lipid aggregates. The later shifts the minimum amount of Tween needed to cross the semi-permeable barrier to increasingly lower relative concentration values.
Transport ability ([…] capability and adaptability) of aggregate suspension. To characterise the resistance of semi-permeable barrier to suspension flux (=transbarrier flux), the same method as in examples 1-120 was used. The resistance was measured as a function of relative SDS concentration in bilayer, to determine minimum amount of this latter surfactant that is needed to maximise suspension flux across the barrier and minimises the barrier transport resistance value. […] This is consistent with the results of first test series (examples 1-120) except in that the measured resistance values are now somewhat higher. […]

threshold limit: minimum amount of SDS needed to minimise barrier transport resistance: around 6 mol-%
Structure (SMILES): CCCCCCCCCCCCOS(=O)(=O)[O-].[Na+] [SDS, Sodium dodecylsulphate]
